Assay [1] concerns human B cells in whole blood. The assay can be described thus: β-glucan binding to B cells in whole blood (BfD IV staining, flow cytometry). Here is the method: Blood was collected from a healthy donor with 10 Units/mL Heparin. 100 μL of blood was mixed with IMPRIME PGG concentrations and incubated at 37° C. for 60 minutes. Cells were washed with 2 mL of PBS and supernatant removed by aspiration. Cells were then stained with 20 μL of BfD IV (U.S. Pat. No. 6,294,321) for 30 minutes before washing again with PBS. 10 μL of goat anti-mouse IgM FITC added to stain for BfD IV positive cells, while 10 μL of anti-CD19 APC was added to stain the B cell population for FACS analysis. Cells were incubated for 30 minutes at room temperature before washing with PBS. The red cells in the blood were lysed by the addition of 2 mL of BD Lyse and fixed with 2% paraformadehyde before analysis on an LSR II flow cytometer. Analysis was performed using FlowJo software.
For orientation: In flow cytometry, cells or beads pass a laser one at a time.

For assay [2], the system named is human B cells in enriched PBMC. The assay can be described thus: β-glucan binding to B cells in enriched PBMC (BfD IV staining, flow cytometry). The conditions noted are these: various hexose concentrations, 37° C., two hours. Here is the method: Enriched PBMC were resuspended at 1×10^6 cells/mL in RPMI 1640 supplemented with 10% serum. The β-glucans (IMPRIME PGG (B) and laminarin (C)) at various hexose concentration were added to the cells and incubated in a 37° C., 5% C02 humidified incubator for two hours. After incubation, cells were washed twice with FACS buffer (HBSS supplemented with 1% FBS and 0.1% sodium azide) to remove any unbound β-glucan, and subsequently treated with Fc block. After the Fc block step, cells were stained with the monoclonal antibody BfD IV (U.S. Pat. No. 6,294,321) for 30 minutes at 4° C. and washed twice with cold FACS buffer. Cells were then incubated with FITC-conjugated F(ab′)2 goat anti-mouse IgM for 30 minutes at 4° C. and washed once with cold FACS buffer before fixing with 1% paraformaldehyde. Events were collected on a LSRII flow cytometer and analysis was performed using FlowJo software. Results are shown in FIG. 2B (IMPRIME PGG) and FIG. 2C (laminarin).

The target in assay [3] is T1, complement receptor 2, (CR2; aka CD21) on B cells (Homo sapiens, UniProt P20023).
T1 construct: endogenous in cells; host or cells: B cells in whole blood or PBMC
T1 sequence (P20023 21-1033): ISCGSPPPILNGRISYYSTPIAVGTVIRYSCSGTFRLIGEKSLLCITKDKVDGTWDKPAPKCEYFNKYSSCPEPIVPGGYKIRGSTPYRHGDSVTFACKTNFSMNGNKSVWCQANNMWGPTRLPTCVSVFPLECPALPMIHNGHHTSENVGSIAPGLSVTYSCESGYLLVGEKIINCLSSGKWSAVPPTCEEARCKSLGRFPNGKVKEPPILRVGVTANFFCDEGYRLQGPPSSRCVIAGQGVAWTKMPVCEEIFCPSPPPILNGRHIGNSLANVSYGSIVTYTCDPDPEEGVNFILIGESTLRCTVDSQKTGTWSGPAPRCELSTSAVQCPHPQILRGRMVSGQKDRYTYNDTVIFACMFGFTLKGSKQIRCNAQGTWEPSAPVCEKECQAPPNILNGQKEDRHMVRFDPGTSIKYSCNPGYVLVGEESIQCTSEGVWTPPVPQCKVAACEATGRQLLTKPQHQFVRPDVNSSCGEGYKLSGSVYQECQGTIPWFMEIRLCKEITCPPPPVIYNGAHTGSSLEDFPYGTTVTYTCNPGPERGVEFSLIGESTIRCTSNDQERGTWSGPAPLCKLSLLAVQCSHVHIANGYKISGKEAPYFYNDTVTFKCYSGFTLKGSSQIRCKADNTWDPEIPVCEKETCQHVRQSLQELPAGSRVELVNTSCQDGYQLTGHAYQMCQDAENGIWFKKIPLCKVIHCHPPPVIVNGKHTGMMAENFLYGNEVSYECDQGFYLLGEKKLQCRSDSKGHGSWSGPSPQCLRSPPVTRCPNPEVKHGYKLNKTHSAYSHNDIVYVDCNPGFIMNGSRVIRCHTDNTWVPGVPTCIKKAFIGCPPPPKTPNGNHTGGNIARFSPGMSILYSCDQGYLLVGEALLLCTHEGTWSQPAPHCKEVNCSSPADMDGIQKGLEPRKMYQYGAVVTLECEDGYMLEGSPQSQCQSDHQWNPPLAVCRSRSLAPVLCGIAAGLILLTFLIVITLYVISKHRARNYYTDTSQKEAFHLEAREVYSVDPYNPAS
The assay can be described thus: β-glucan binding and CR2 blocking with anti-CR2 antibody. The conditions noted are these: IMPRIME PGG at 100 μg/mL; whole blood or PBMC; anti-CR2 clone 1048 at 10 μg/mL. As for the experimental part:
Whole blood or PBMC were pre-incubated with specific receptor blocking antibodies or the relevant isotype controls at 4° C. for 30-45 minutes before addition of IMPRIME PGG at 100 μg/mL. Binding to B cells was performed as described in Example 1. Clone 1048, the mouse mAb against CR2, and mouse IgG1 isotype control was used at 10 μg/mL/1×10^6 cells. Results are shown in FIG. 3B (Whole Blood) and FIG. 3C (PBMC).

A further assay concerns Daudi cells. The assay can be described thus: Binding of IMPRIME PGG to B cell tumor line Daudi. More on the design: species or system human. The conditions noted are these: 50 mcg/mL and 200 mcg/mL.
A further assay has as its system Raji cells. The assay can be described thus: Binding of IMPRIME PGG to B cell tumor line Raji. The settings on record: 50 mcg/mL and 200 mcg/mL. More on the design: species or system human.
A further assay concerns CD19+ B cells. The assay can be described thus: Targeted binding of β-glucan and β-glucan-ERBITUX conjugate to CD19+ B cells in whole blood. More on the design: species or system human. The settings on record: 10 μg/mL, 30 minutes at 37° C. Here is the method:
Cells were washed twice with PBS before staining with the β-glucan specific antibody BfD IV (U.S. Pat. No. 6,294,321). Cells were washed again and stained with an antibodies specific for human IgG to detect ERBITUX and CD19 to label B cells. Cells were analyzed on and LSRII flow cytometer and the groups were compared by gating on CD19^+ B cells.

In assay [4] the test system is B cells. The assay can be described thus: Calcium flux in PBMC B cells treated in vitro with soluble β-glucan, then stimulated with anti-IgM. It counts as cell-based, human. The conditions noted are these: 100 μg/mL, 37° C., one hour; anti-IgM 2.6 μg/mL. Here is the method: FURA RED and FLUO-4 (each from Invitrogen, Life Technologies Corp., Carlsbad, Calif.) calcium stain was added to serum free RPMI medium to a final concentration of 3 μM for each dye, then incubated at 37° C. for 30 minutes. PBMCs mixed 1:1 with media containing 10% FCS and incubated an additional 10 minutes. The cells were washed 2× with media containing 10% FCS. Cells were resuspended in RPMI with 10% human serum.
The resuspended cells were incubated with or without the addition of 100 μg/mL IMPRIME PGG at 37° C. for one hour. The monoclonal antibody CD20 APC (BioLegend, Inc., San Diego, Calif.) was added to each tube for 10 minute incubation before washing 2× with RPMI containing 10% FCS. Cells were resuspended in RPMI with 10% FCS for FACS analysis. Calcium flux was induced by stimulating the B cells with goat anti-human IgM at 2.6 μg/mL.
(A change in cytosolic calcium serves as a functional read-out for many receptors and channels.)

Assay [5] deals with B cells. Put plainly: Calcium flux in B cells of subjects treated in vivo with particulate oral β-glucan, then stimulated with anti-IgM. The settings on record: 100 mg/day to 1000 mg/day, anti-IgM 10, 2 or 0.4 μg/mL. More on the design: species or system human. Here is the method:
Blood was drawn from untreated donors (n=15) or donors (n=12) treated with particulate oral β-glucan (U.S. Pat. No. 7,981,447) at dosages ranging from 100 mg/day to 1000 mg/day. PBMCs were isolated from blood using a ficoll gradient.
The isolated PBMCs were treated with 6 μM FURA RED and 3 μM FLUO-4 (each from Invitrogen, Life Technologies Corp., Carlsbad, Calif.) in PBS for 45 minutes at 37° C. The cells were washed 2× with PBS and stained with anti-CD20 APC (BioLegend, Inc., San Diego, Calif.) for 20 minutes at room temperature. Cells were washed 2× and resuspended in RPMI containing 2.5% FCS for FACS analysis. Calcium flux was induced by stimulating the B cells with goat anti-human IgM at 10 μg/mL, 2 μg/mL, or 0.4 μg/mL.

“BT-1110: bovine serum albumin (BSA) conjugated to IMPRIME PGG”: the “MFI of BfD IV staining on B cells compared to unconjugated IMPRIME PGG” value in assay [1] (50 μg/mL, whole blood) is reported as “higher”.

Consider Laminarin [reference compound], for which, in assay [2], the “binding to B cells in enriched PBMC (MFI of BfD IV staining)” value was “bind directly to human B cells”.

Turning to “β(1,6)-[poly-1,3)-D-glucopyranosyl]-poly-b(1,3)-D-glucopyranose [IMPRIME PGG]”, in assay [1] (various concentrations, 37° C., 60 minutes), the “binding to B cells in whole blood (MFI of BfD IV staining)” value is recorded as “bind directly to human B cells”. Besides, the “binding to B cells in enriched PBMC (MFI of BfD IV staining)” value in assay [2] is reported as “bind directly to human B cells”. Besides, in assay [3], the “binding to CR2 on B cells (blocking by anti-CR2 antibody)” value is on record as “binds to complement receptor 2”. Also, in the assay with Daudi cells, the “binding to Daudi B cell tumor line” value was “bound to these tumor lines in a concentration-dependent manner”. Besides, the “binding to Raji B cell tumor line” value with Raji cells is recorded as “bound to these tumor lines in a concentration-dependent manner”. The “β-glucan detected on CD19+ B cells with anti-β-glucan antibody BfD IV” value with CD19+ B cells is recorded as “positive for β-glucan”. Also, in the assay on B cells [4], the “calcium flux of B cells after goat anti-human IgM stimulation” value was “larger and more sustained calcium flux”.

As for “β(1,6)-[poly-1,3)-D-glucopyranosyl]-poly-b(1,3)-D-glucopyranose [particulate form of β-glucan]”, in the assay with B cells [5], the “calcium flux of B cells after goat anti-human IgM stimulation, treated vs untreated subjects” value is on record as “decrease calcium flux”.

Source of the values: patent publication US9943607B2, “Beta-glucan compounds, compositions, and methods” (Biothera, Inc., priority 2011, dated 2018).
